For this assay, the system named is Phakopsora pachyrhizi. As to the kind of experiment: Soybean leaf disk test against Asian soybean rust (Example 1). Type of assay: in vivo. The settings on record: soybean leaf disks, assessed 12 days after inoculation; for inhibition at 0.74 ppm / inhibition at 2.22 ppm / inhibition at 0.25 ppm: Phakopsora pachyrhizi, foliar, 288 h, component (B) alone; for (A) inhibition: Aureobasidin A alone. The method, then:
The compositions according to the invention are tested for their biological (fungicidal) activity using application rates wherein the component (A) is applied at a rate of from 25 g a.i./ha to 500 g a.i./ha in association with 10 g a.i./ha to 500 g a.i./ha of component (B).
The compositions according to the invention are tested for their biological (fungicidal) activity as dimethylsulfoxide (DMSO) solutions the protocols as set forth in the examples below. A standard description of the liquid culture tests is provided in Example 1.
Compounds to be tested were prepared as DMSO solutions (max. 10 mg/mL) which were diluted to the appropriate concentration with 0.025% TWEEN 20® surfactant just before spraying. Soybean leaf disks were placed on agar in multiwell plates (24-well format) and sprayed with test solutions. After 24 hours drying, the leaf disks were inoculated with a spore suspension of the fungus. The disease severity of a compound or mixture was assessed 12 days after inoculation and described as percent activity relative to the untreated check leaf disks.

What is called inhibition is the change of the read-out against control, counted positive when it falls.

`CON(Cc1ccc(-c2noc(C(F)(F)F)n2)cc1)C(=O)C1CC1` [B.02, N-methoxy-N-[[4-[5-(trifluoromethyl)-1,2,4-oxadiazol-3-yl]phenyl]methyl]cyclopropanecarboxamide] showed an inhibition at 0.74 ppm of 10% and an inhibition at 2.22 ppm of 35%.
The molecule `CCOC(=O)c1cnn(Cc2ccc(-c3noc(C(F)(F)F)n3)cc2)c1` [B.01, ethyl 1-[[4-[5-(trifluoromethyl)-1,2,4-oxadiazol-3-yl]phenyl]methyl]pyrazole-4-carboxylate] showed an inhibition at 0.74 ppm of 50%.
Turning to `CONC(=O)N(Cc1ccc(-c2noc(C(F)(F)F)n2)cc1)OC` [B.06, 1,3-dimethoxy-1-[[4-[5-(trifluoromethyl)-1,2,4-oxadiazol-3-yl]phenyl]methyl]urea], the inhibition at 0.25 ppm was 0% and testing at 0.74 ppm gave an inhibition of 0%.
`CCNC(=O)N(Cc1ccc(-c2noc(C(F)(F)F)n2)cc1)OC` [B.07, 3-ethyl-1-methoxy-1-[[4-[5-(trifluoromethyl)-1,2,4-oxadiazol-3-yl]phenyl]methyl]urea] showed an inhibition at 0.25 ppm of 0% and an inhibition at 0.74 ppm of 35%.
With `CCC(=O)NCc1ccc(-c2noc(C(F)(F)F)n2)cc1` [B.08, N-[[4-[5-(trifluoromethyl)-1,2,4-oxadiazol-3-yl]phenyl]methyl]propanamide], the inhibition at 0.25 ppm is 0%, the inhibition at 0.74 ppm stood at 20% and the inhibition at 2.22 ppm is 60%.
For `CCN(Cc1ccc(-c2noc(C(F)(F)F)n2)cc1)C(=O)C(C)C` [B.04, N-ethyl-2-methyl-N-[[4-[5-(trifluoromethyl)-1,2,4-oxadiazol-3-yl]phenyl]methyl]propanamide] the same measures were 0%, 0% and 35%.
Molecule `CNC(=O)N(Cc1ccc(-c2noc(C(F)(F)F)n2)cc1)OC` [B.05, 1-methoxy-3-methyl-1-[[4-[5-(trifluoromethyl)-1,2,4-oxadiazol-3-yl]phenyl]methyl]urea] came in with an inhibition at 0.25 ppm of 0% and an inhibition at 0.74 ppm of 50%.
Turning to Aureobasidin A, the “(A) inhibition” value by setting is: (2.5 ppm) 62%; (7.4 ppm) 88%.
Consider `COC(C)C(=O)N(Cc1ccc(-c2noc(C(F)(F)F)n2)cc1)OC` (stereo not shown) [B.03, N,2-dimethoxy-N-[[4-[5-(trifluoromethyl)-1,2,4-oxadiazol-3-yl]phenyl]methyl]propanamide], for which the inhibition at 0.74 ppm is 10% and testing at 2.22 ppm gave an inhibition of 35%.

Values taken from US20250107533A1, “FUNGICIDAL COMPOSITIONS” (SYNGENTA CROP PROTECTION AG, priority 2021, published 2025).
